Measured values taken from patent US7816323B2, “Methods of using corticotropin-releasing factor for the use of the treatment of cancer” (priority 2008, dated 2010).

Columns and labels:
[1] = tested on: human glioblastoma cell line U87 Flue; assay: Brain tumor-bearing SCID mice (U87 Flue glioblastoma), 80-day survival and tumor progression study
From the text: The U87 Flue cell line was created by stably transducing U87 cells with a lentiviral construct containing the luc gene.

peritumoral edema = conditions: patients with peritumoral edema; cited from earlier work
malignant brain tumor = assay: Clinical study of CRF in patients with malignant brain tumor (tumor size by MRI, survival); type: in vivo, human
Protocol: Patients with malignant brain tumor were treated with 2 mg/day (1 mg dose, twice daily) of either human CRF subcutaneously. […] Additionally, of the 30 patients who had received treatment for at least 6 months, 10 experienced a decrease in tumor size.

[2] = high dose of CRF, 80-day study period

Compound: Cn1nnc2c(C(N)=O)ncn2c1=O [TMZ, reference compound]
- mice still alive at the end of the 80-day study period ([1]; TMZ-treated mice): 40%

Compound: corticorelin acetate
- exposure to dexamethasone (peritumoral edema): reduced exposure to dexamethasone
- steroid-related side effects (peritumoral edema): improvement in steroid-related side effects

Compound: CRF: endogenous 41 amino acid peptide, the major hypothalamic hormone responsible for stimulation of the pituitary-adrenal axis
- patients exhibiting a reduction in tumor size of around 90% (malignant brain tumor; FIG. 2 patients, 2 mg/day s.c.): two
- survival of some patients after CRF treatment (malignant brain tumor; FIGS. 1 and 2): 1-2 years
- survival of the overwhelming majority of patients (malignant brain tumor; FIGS. 1 and 2, projected survival 3-6 months): live well beyond the projected 3-6 months
- metastatic patients exhibiting survival beyond the projected 3-6 months (malignant brain tumor; of the 3 metastatic patients in FIG. 3): 3 patients
- metastatic patients showing a reduction in tumor size at the last timepoint measured (malignant brain tumor; of the 3 metastatic patients in FIG. 3, 2 mg/day s.c.): 2 patients
- patients exhibiting a reduction in tumor size at the last time point measured (malignant brain tumor; of the 10 patients in FIG. 2, 2 mg/day s.c.): 8 patients
- patients exhibiting a maintenance in tumor size (malignant brain tumor; of the 20 patients in FIG. 1, 2 mg/day s.c.): 5 patients
- patients exhibiting a reduction in tumor size (malignant brain tumor; of the 20 patients in FIG. 1, 2 mg/day s.c. (1 mg twice daily)): 6 patients
- patients exhibiting a reduction in tumor size by over 50% (malignant brain tumor; of the 20 patients in FIG. 1, after 9 months of treatment, 2 mg/day s.c.): 3 patients
- patients experiencing a decrease in tumor size (malignant brain tumor; of the 30 patients treated for at least 6 months): 10 patients
- survival over the 80-day study period ([1]; high dose of CRF, 100 μg/kg s.c. twice daily, all mice): survived the entire 80-day study period
- brain tumor progression (luminescence imaging) [1, 2]: did not progress during the 80-day study period
- health appearance of the mice during the study [1, 2]: appeared healthy throughout
- brain tumor progression (luminescence imaging) ([1]; low dose of CRF): did not progress or progressed more slowly
- mean survival time ([1]; low dose of CRF): between mice, that were administered a high dose of CRF, and mice that had received no treatment or were administered dexamethasone
- mice still alive at the end of the 80-day study period ([1]; low dose of CRF): 60%

Compound: O=NN(CCCl)C(=O)NCCCl [BiCNU, reference compound]
- brain tumor growth / response to treatment (photon emission) ([1]; chemotherapeutic agents, TMZ: all mice but one): continued to grow
